Active and inactive are the calls of the source.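 Rule for the calls: active = viability below 70% at one or more concentrations in every replicate; inactive = viability above 70% at all doses, or replicates disagree.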

The text below walks through data of PubChem BioAssay AID623930 (Southern Research Specialized Biocontainment Screening …, 2012).

One assay relates to Vero E6 viability, CellTiter-Glo luminescence, 96 h. The assay can be described thus: Vero E6 cell cytotoxicity, SAR follow-up, cytotoxicity control for West Nile virus antiviral project, synthesized analogs, extended characterization 2 (AID 623930).
Conditions: not given
As usually defined, the CC50 is the concentration giving 50% cytotoxicity. Consider `O=C(CSc1nc2c(Cl)cccc2c(=O)n1-c1cc(Cl)cc(Cl)c1)Nc1ccc2c(c1)CCC2`, for which the CC50 was 72.2 µM. The same measure, in the same setting: the same measure for `Cc1cc(-n2c(SCC(=O)Nc3nc(-c4ccccc4)cs3)nc3ccccc3c2=O)ccc1F`: 87.8 µM.

On to `O=C(CSc1nc2ccccc2c(=O)n1-c1c(Cl)cccc1Cl)Nc1nc(-c2ccccc2)cs1`, for which the CC50 is 52.6 µM.

Turning to `O=C(CSc1nc2c(F)cccc2c(=O)n1-c1cc(Cl)cc(Cl)c1)Nc1ccc2c(c1)CCC2`, the CC50 was 77 µM. Still for that read-out and setting: the same measure for `O=C(CSc1nc2c(F)cccc2c(=O)n1-c1ccc(Cl)c(Cl)c1)Nc1ccc2c(c1)CCC2`: 34.5 µM; for `O=C(CSc1nc2ccccc2c(=O)n1-c1cc(F)cc(F)c1)Nc1nc(-c2ccccc2)cs1`: 82.9 µM.

Test system in another assay: not listed separately
The assay is described as above. To be noted: Vero E6 viability, CellTiter-Glo luminescence, 96 h; at 100 µM (top of the series). In general terms: In ATP-based viability assays light output follows the ATP content of the culture.
Broadly, the viability is a read-out of living cells in per cent, often relative to untreated cells. Consider `N#Cc1ccc(-n2c(SCC(=O)Nc3nc(-c4ccccc4)cs3)nc3ccccc3c2=O)cc1F`, for which the viability was 78.4% (inactive). In the case of `O=C(CSc1nc2ccccc2c(=O)n1-c1ccc(Cl)c(Cl)c1)Nc1ccc2c(c1)CCC2`, the viability is 75.2% (inactive). The same measure, in the same setting: under `O=C(CSc1nc2ccccc2c(=O)n1-c1ccc(Cl)c(F)c1)c1nc(-c2ccccc2)cs1` stands 72% (inactive); under `O=C(CSc1nc2c(F)cccc2c(=O)n1-c1cc(Cl)cc(Cl)c1)Nc1nc(-c2ccccc2)cs1`, 76% (inactive). As for `O=C(CSc1nc2ccccc2c(=O)n1-c1c(Cl)cccc1Cl)Nc1ccc2c(c1)CCC2`, the viability was 74.6% (inactive). For `O=C(CSc1nc2cccc(F)c2c(=O)n1-c1ccc(Cl)c(Cl)c1)Nc1ccc2c(c1)CCC2`, the viability was 71.9% (inactive). The same measure, in the same setting: under `O=C(CSc1nc2c(F)cccc2c(=O)n1-c1ccc(Cl)c(Cl)c1)Nc1nc(-c2ccccc2)cs1` stands 73.3% (inactive).
